# PubChem BioAssay AID2060341 (Molecular Pharmacology Branch, DTP, NCI, 2025)
# Values joined by “and” are separate entries in the source; they are usually repeats but may differ in a detail not shown here. Equal entries are not always repeated.
# System: 327498-153-R-J2-PDC multicell spheroid viability
# Assay: Anticancer human tumor 327498-153-R-J2-PDC patient-derived uterine carcinosarcoma cell line growth inhibition [IpAb]
# Settings: for viability, T/C: stronger effect = lower value
# Outline: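 Combinations with ipatasertib or abemaciclib were tested on tumour spheroids holding HUVEC (25%) and MSC (15%) alongside 60% malignant cells. Top concentration was at or near clinical Cmax (10 microM if undefined), descending in half-log steps.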
# [1] = curve of first compound, second compound 0.1 µM
# [2] = curve of first compound, second compound 0.316 µM
# [3] = curve of first compound, second compound 1 µM
# [4] = second compound 0.1 µM, first compound 0.0316 µM
# [5] = second compound 0.1 µM, first compound 0.1 µM
# [6] = second compound 0.316 µM, first compound 0.0316 µM
# [7] = second compound 0.316 µM, first compound 0.1 µM
# [8] = second compound 1 µM, first compound 0.0316 µM
# [9] = second compound 1 µM, first compound 0.1 µM
# 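Note: spheroids exposed to agents for 7 days.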
# 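Throughout, for viability, T/C: 100% = DMSO vehicle control viability.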
compound,measurement,setting,value
Cc1nc(NC(=O)N2CCCC2C(N)=O)sc1-c1ccnc(C(C)(C)C(F)(F)F)c1 (configuration not stated) + CC(C)NCC(C(=O)N1CCN(c2ncnc3c2C(C)CC3O)CC1)c1ccc(Cl)cc1,IC50,[1],9.91 µM
same,IC50,[2],4.45 µM
same,IC50,[3],1.23 µM
same,IC50,"curve of first compound, second compound 3.16 µM",0.0499 µM
same,IC50,"curve of first compound, second compound 10 µM",< 0.0316 µM
same,"viability, T/C",[4],91.1%
same,"viability, T/C",[5],93.2%
same,"viability, T/C","second compound 0.1 µM, first compound 0.316 µM",83.3%
same,"viability, T/C","second compound 0.1 µM, first compound 1 µM",72.7%
same,"viability, T/C","second compound 0.1 µM, first compound 3.16 µM",63.8%
same,"viability, T/C","second compound 0.1 µM, first compound 10 µM",49.4%
same,"viability, T/C",[6],72%
same,"viability, T/C",[7],70.5%
same,"viability, T/C","second compound 0.316 µM, first compound 0.316 µM",67.8%
same,"viability, T/C","second compound 0.316 µM, first compound 1 µM",59.2%
same,"viability, T/C","second compound 0.316 µM, first compound 3.16 µM",57.8%
same,"viability, T/C","second compound 0.316 µM, first compound 10 µM",38.5%
same,"viability, T/C",[8],56.4%
same,"viability, T/C",[9],57.7%
same,"viability, T/C","second compound 1 µM, first compound 0.316 µM",59.2%
same,"viability, T/C","second compound 1 µM, first compound 1 µM",49.8%
same,"viability, T/C","second compound 1 µM, first compound 3.16 µM",42.5%
same,"viability, T/C","second compound 1 µM, first compound 10 µM",30.5%
same,"viability, T/C","second compound 3.16 µM, first compound 0.0316 µM",54.3%
same,"viability, T/C","second compound 3.16 µM, first compound 0.1 µM",44.9%
same,"viability, T/C","second compound 3.16 µM, first compound 0.316 µM",36.2%
same,"viability, T/C","second compound 3.16 µM, first compound 1 µM",34.6%
same,"viability, T/C","second compound 3.16 µM, first compound 3.16 µM",33.7%
same,"viability, T/C","second compound 3.16 µM, first compound 10 µM",21.3%
same,"viability, T/C","second compound 10 µM, first compound 0.0316 µM",38.7%
same,"viability, T/C","second compound 10 µM, first compound 0.1 µM",31.7%
same,"viability, T/C","second compound 10 µM, first compound 0.316 µM",26.6%
same,"viability, T/C","second compound 10 µM, first compound 1 µM",23.5%
same,"viability, T/C","second compound 10 µM, first compound 3.16 µM",25.5%
same,"viability, T/C","second compound 10 µM, first compound 10 µM",17.2%
C=CCn1c(=O)c2cnc(Nc3ccc(N4CCN(C)CC4)cc3)nc2n1-c1cccc(C(C)(C)O)n1,"viability, T/C",compound 0.0316 µM,97% and 97.5%
same,"viability, T/C",compound 0.1 µM,106% and 94.9%
same,"viability, T/C",compound 0.316 µM,56.2% and 56.8%
same,"viability, T/C",compound 1 µM,4.15% and 5.89%
same,"viability, T/C",compound 3.16 µM,3.83% and 4.76%
same,"viability, T/C",compound 10 µM,5.49% and 6.6%
same,IC50,curve of compound,0.363 µM and 0.369 µM
Cn1ncnc1[C@H]1c2n[nH]c(=O)c3cc(F)cc(c23)N[C@@H]1c1ccc(F)cc1 + CCN1CCN(Cc2ccc(Nc3ncc(F)c(-c4cc(F)c5nc(C)n(C(C)C)c5c4)n3)nc2)CC1,IC50,"curve of first compound, second compound 0.01 µM",0.0186 µM
same,IC50,"curve of first compound, second compound 0.0316 µM",0.0121 µM
same,IC50,[1],0.00576 µM
same,IC50,[2],0.00284 µM
same,IC50,[3],0.00384 µM
same,"viability, T/C","second compound 0.01 µM, first compound 0.000316 µM",96%
same,"viability, T/C","second compound 0.01 µM, first compound 0.001 µM",87.3%
same,"viability, T/C","second compound 0.01 µM, first compound 0.00316 µM",85.3%
same,"viability, T/C","second compound 0.01 µM, first compound 0.01 µM",58.1%
same,"viability, T/C","second compound 0.01 µM, first compound 0.0316 µM",42.3%
same,"viability, T/C","second compound 0.01 µM, first compound 0.1 µM",25.2%
same,"viability, T/C","second compound 0.0316 µM, first compound 0.000316 µM",74.8%
same,"viability, T/C","second compound 0.0316 µM, first compound 0.001 µM",70%
same,"viability, T/C","second compound 0.0316 µM, first compound 0.00316 µM",63.3%
same,"viability, T/C","second compound 0.0316 µM, first compound 0.01 µM",50.3%
same,"viability, T/C","second compound 0.0316 µM, first compound 0.0316 µM",41.2%
same,"viability, T/C","second compound 0.0316 µM, first compound 0.1 µM",28.2%
same,"viability, T/C","second compound 0.1 µM, first compound 0.000316 µM",68.3%
same,"viability, T/C","second compound 0.1 µM, first compound 0.001 µM",56.6%
same,"viability, T/C","second compound 0.1 µM, first compound 0.00316 µM",54.7%
same,"viability, T/C","second compound 0.1 µM, first compound 0.01 µM",47.2%
same,"viability, T/C",[4],39.6%
same,"viability, T/C",[5],28.9%
same,"viability, T/C","second compound 0.316 µM, first compound 0.000316 µM",59%
same,"viability, T/C","second compound 0.316 µM, first compound 0.001 µM",54%
same,"viability, T/C","second compound 0.316 µM, first compound 0.00316 µM",49.3%
same,"viability, T/C","second compound 0.316 µM, first compound 0.01 µM",44.8%
same,"viability, T/C",[6],38.2%
same,"viability, T/C",[7],32.5%
same,"viability, T/C","second compound 1 µM, first compound 0.000316 µM",62.2%
same,"viability, T/C","second compound 1 µM, first compound 0.001 µM",53.9%
same,"viability, T/C","second compound 1 µM, first compound 0.00316 µM",51.4%
same,"viability, T/C","second compound 1 µM, first compound 0.01 µM",45.1%
same,"viability, T/C",[8],40.8%
same,"viability, T/C",[9],31.6%
